Measured values taken from PMC7594840, “Identification of histone deacetylase inhibitors with (arylidene)aminoxy scaffold active in uveal melanoma cell lines” (Journal of Enzyme Inhibition and Medicinal Chemistry, 2020).

Legend:
[1] = tested on: HDAC target genes (RAD54L, RAD51, CLU) in Mel270 cells; test: QRT-PCR of mRNA levels of HDAC target genes, Mel270 cells; assay type: cell-based, human; settings: 10 µM compound, 48 h, normalised to GAPDH
Protocol: (§1) Finally, we determined if the treatment of UM cells 92.1 and Mel270 with our compounds could modify the mRNA levels of HDAC target genes. […]
(§2) Figure 9. Modulation of RAD54L, RAD51 and CLU mRNA expression by the different compounds in UM cells 92.1 and Mel270. Cells were treated for 48 h with 10 µM compound or the corresponding amount of DMSO. Data, normalised to GAPDH housekeeping gene, are expressed as fold change relative to the DMSO control. Error bars represent SD of triplicates. One representative experiment is shown.
(§3) Treatments with the compounds were performed with slight differences, according to the final use of the samples. For the cell viability assay with MTT, cells were seeded in 96-well flat-bottom plates in culture medium at 5 × 10^3 cells/well, whereas for cell cycle analysis and QRT-PCR cells were seeded in 24-well plates at 5 × 10^4 cells/well. The day after, a culture medium containing the appropriate amount of compounds or their solvent control DMSO was added, and treatments were carried out for the indicated time.
(§4) To assess the modulation of gene expression, cells were harvested at 48 h of treatment and total RNA was isolated using the NucleoSpin RNA kit (Macherey-Nagel) and reverse-transcribed with the SuperScript III Reverse Transcriptase (Invitrogen). […] Expression levels of mRNAs relative to untreated control were calculated by the ΔΔCT method (Table 3).

92.1 cells = test: MTT cell viability assay, UM cell line 92.1; assay type: cell-based, human; settings: 72 h treatment, compared with SAHA and LD10
Protocol: (§5) The anti-proliferative effects of the most promising HDAC inhibitors, VS16, VS13, SN2, and LD10 were evaluated on human UM cell lines (92.1 and Mel270) and SAHA was used as a positive control. First, we assessed by MTT assay the cell viability after a 72 h treatment at different concentrations. […] Similar results were found for ovarian carcinoma cell line A2780 and to a lesser extent for SKOV3 (Supplementary Figure S2).
(§6) Figure 7. MTT. In vitro cytotoxicity at the 72 h time point of the different compounds in human UM cell lines 92.1 and Mel270, as assessed by the MTT cell viability assay. Data are expressed as percent of control with the DMSO solvent, which was used at the same amount present in the highest compound concentration. Error bars represent SD of quadruplicates. One representative experiment is shown.
as §3
(§7) Cell viability after treatment was evaluated by a microculture tetrazolium reduction assay using MTT [3–(4,5-dimethyltiazol-2-yl) 2,5-diphenyltetrazolium bromide; Sigma]. At 72 h of treatment, 20 μl of MTT stock solution (2 mg/ml in PBS) were added to 200 μl cell cultures for an additional 4 h of incubation. MTT-containing culture medium was then removed and precipitated formazan was dissolved in 100 μl of DMSO. Results were read within 15 min in a microplate reader spectrometer at 540 nm (MEDGENIX 400 ATC, Medgenix Diagnostics), and the means of quadruplicates were calculated. Cell survival was expressed as a percentage of control samples.

[2] = tested on: HDAC target genes (RAD54L, RAD51, CLU, DHRS2, CDKN1A) in 92.1 cells; test: QRT-PCR of mRNA levels of HDAC target genes, 92.1 cells; assay type: cell-based, human; settings: 10 µM compound, 48 h, normalised to GAPDH
Protocol: as §1, §2, §3, §4

HDAC1 = biological target: T1, HDAC1 (Homo sapiens, UniProt Q13547); test: Microfluidic chip-based HDAC inhibition assay (Calliper off-chip mobility shift), HDAC1; assay type: biochemical; settings: duplicate, 10-point dose curve, 3-fold serial dilution from 30 μM
T1 construct: purchased BPS Bioscience
Source text: (§8) Test compounds were screened against human histone deacetylases (HDACs) 1, 3, 6, and 8 using the Calliper off-chip mobility shift assay technology. All HDACs were purchased from BPS Bioscience and four selective substrates were used according to the targeted isozyme. […] Buffers components, except for CR-3 (LabChip Coating Reagent 3, purchased from PerkinElmer, Product Number 760050) and Panobinostat (LBH589, purchased from ApexBio Technology)[35]^,[36] were purchased from Sigma Aldrich. […] (all purchased from Selleck Chemicals).

Mel270 cells = test: MTT cell viability assay, UM cell line Mel270; assay type: cell-based, human; settings: 72 h treatment, compared with SAHA and LD10
Protocol: as §5, §6, §3, §7

HDAC3 = biological target: T2, HDAC3 (Homo sapiens, UniProt O15379); test: Microfluidic chip-based HDAC inhibition assay (Calliper off-chip mobility shift), HDAC3; assay type: biochemical; settings: duplicate, 10-point dose curve, 3-fold serial dilution from 30 μM; SAHA 15-point dose curve
T2 construct: purchased BPS Bioscience
Source text: as §8

HDAC6 = biological target: T3, HDAC6 (Homo sapiens, UniProt Q9UBN7); test: Microfluidic chip-based HDAC inhibition assay (Calliper off-chip mobility shift), HDAC6; assay type: biochemical
T3 construct: purchased BPS Bioscience
T3 sequence (Q9UBN7 1-1215): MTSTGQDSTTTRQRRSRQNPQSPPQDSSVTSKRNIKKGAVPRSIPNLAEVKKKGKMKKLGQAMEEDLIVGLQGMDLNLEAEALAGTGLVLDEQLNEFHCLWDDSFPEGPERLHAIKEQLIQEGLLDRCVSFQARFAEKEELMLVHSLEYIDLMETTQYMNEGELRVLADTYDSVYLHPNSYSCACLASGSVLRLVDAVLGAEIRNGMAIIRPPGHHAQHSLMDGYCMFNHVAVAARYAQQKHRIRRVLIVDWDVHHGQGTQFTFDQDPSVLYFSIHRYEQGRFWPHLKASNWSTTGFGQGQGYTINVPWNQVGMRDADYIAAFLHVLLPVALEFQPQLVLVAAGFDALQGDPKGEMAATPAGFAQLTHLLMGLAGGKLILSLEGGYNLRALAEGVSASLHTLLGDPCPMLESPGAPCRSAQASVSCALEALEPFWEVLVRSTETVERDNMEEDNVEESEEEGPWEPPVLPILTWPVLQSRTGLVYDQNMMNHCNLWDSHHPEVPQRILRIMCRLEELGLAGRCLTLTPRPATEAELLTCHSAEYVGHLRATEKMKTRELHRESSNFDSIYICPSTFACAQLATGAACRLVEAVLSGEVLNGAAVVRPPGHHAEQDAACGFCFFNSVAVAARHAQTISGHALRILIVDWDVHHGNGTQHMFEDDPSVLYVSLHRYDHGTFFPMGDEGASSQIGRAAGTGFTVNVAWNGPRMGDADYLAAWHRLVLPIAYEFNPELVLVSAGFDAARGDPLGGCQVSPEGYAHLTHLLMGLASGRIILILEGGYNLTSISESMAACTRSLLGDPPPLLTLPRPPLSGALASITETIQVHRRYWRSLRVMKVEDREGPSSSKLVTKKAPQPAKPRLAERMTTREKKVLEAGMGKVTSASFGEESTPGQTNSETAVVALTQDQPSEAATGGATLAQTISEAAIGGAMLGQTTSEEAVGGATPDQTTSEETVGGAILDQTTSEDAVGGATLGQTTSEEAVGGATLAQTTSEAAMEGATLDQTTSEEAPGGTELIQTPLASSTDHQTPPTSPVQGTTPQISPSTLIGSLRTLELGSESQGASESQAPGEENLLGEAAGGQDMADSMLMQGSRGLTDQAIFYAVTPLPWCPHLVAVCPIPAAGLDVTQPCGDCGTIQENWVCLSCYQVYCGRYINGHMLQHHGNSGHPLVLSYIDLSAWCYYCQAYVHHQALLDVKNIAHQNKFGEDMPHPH
Source text: as §8

T2 sequence (O15379 whole entry): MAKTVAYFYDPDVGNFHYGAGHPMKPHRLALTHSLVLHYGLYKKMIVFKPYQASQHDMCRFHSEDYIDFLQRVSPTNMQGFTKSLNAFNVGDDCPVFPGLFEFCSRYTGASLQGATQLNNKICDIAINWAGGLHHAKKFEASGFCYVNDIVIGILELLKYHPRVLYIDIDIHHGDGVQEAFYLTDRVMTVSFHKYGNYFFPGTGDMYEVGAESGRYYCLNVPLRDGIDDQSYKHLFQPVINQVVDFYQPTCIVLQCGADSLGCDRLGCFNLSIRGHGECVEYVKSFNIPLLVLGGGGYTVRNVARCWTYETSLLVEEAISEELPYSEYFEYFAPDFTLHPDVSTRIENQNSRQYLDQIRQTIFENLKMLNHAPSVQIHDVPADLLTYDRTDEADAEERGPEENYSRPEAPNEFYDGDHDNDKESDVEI
T2 sequence (Q9Y618 395-489 partner limits assumed): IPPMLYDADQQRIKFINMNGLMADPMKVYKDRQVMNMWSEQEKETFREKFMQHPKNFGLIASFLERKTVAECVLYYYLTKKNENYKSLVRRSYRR
T1 sequence (Q13547 whole entry): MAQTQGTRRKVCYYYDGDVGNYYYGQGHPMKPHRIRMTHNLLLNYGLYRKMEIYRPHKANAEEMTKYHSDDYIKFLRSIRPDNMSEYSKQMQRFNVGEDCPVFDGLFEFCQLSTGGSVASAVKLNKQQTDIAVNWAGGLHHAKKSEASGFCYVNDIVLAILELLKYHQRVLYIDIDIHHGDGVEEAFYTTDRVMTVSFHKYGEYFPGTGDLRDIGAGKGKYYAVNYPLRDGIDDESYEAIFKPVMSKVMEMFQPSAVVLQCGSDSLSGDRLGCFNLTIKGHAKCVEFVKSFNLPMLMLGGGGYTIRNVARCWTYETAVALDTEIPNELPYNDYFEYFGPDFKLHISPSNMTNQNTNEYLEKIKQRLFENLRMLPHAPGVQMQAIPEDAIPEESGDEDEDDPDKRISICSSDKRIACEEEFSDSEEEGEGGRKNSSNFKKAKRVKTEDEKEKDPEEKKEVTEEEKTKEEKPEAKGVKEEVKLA

O=C(CCCCO/N=C/c1cnc2ccccc2c1)NO [Compound 2f, (E)-N-hydroxy-5-(((quinolin-3-ylmethylene)amino)oxy)pentanamide]
modulation of mRNA levels of HDAC target genes [1]: induced a pattern of gene modulation, which overlapped that of SAHA | effect on cell viability (MTT) (92.1 cells): stronger effect | modulation of mRNA levels of HDAC target genes [2]: induced a pattern of gene modulation, which overlapped that of SAHA | IC50 (HDAC1): 137 nM | effect on cell viability (MTT) (Mel270 cells): stronger effect | IC50 (HDAC3): 40 nM | IC50 (HDAC6): 10 nM | times less active than SAHA on HDAC6 (HDAC6; compared with SAHA): 7 times
